In series [1] the test system is C. albicans ATCC 10231. Description: broth microdilution antimicrobial activity, C. albicans reference strain. The class given is cell-based, Candida albicans. The conditions noted are these: 100 μM, growth relative to positive control, mean ± SD. As for the experimental part:
Reference bacterial strains of Staphylococcus aureus (ATCC 25923), Escherichia coli (ATCC 25922), and Candida albicans (ATCC 10231) were used in this study as Gram-positive, Gram-negative, and fungal models, respectively. These reference strains were purchased from the American Type Culture Collection (ATCC, Manassas, VA, USA); bacterial cultures were routinely grown at 37 °C on 5% blood agar plate, while fungal cultures on Sabouraud Dextrose Agar (Biolife Italiana S.r.l., Milan, Italy).
The dry powder of the isatin derivatives was resuspended in dimethylsulfoxide (DMSO) at 20 mM and used as stock solutions. For biological investigations, compounds were used in the range 100–0.78 µM, and the solvent in the corresponding percentage range.
The antimicrobial activity of the compounds was assessed by a well-established broth microdilution procedure in microtiter plates and in compliance with the Clinical and laboratory Standard Institute (CLSI) guidelines (Clinical and Laboratory Standards Institute, Wayne, PA, USA). In short, microbial inocula were prepared at 0.5 McFarland in PBS and, subsequently, bacterial suspensions were diluted 1:200 in Mueller–Hinton broth (Sigma-Aldrich, St. Louis, MO, USA), while fungal inoculum was diluted 1:20 in RPMI-1640 medium (Gibco®, ThermoFisher Scientific Inc., Waltham, MA, USA), containing 2% glucose and 0.3% levo-glutamine buffered to pH 7.0 with 0.165 M 3-(N-morpholino)propanesulfonic acid (MOPS). A total of 100 µL of these microbial suspensions were introduced in a 96-well microplate and incubated with 100 µL of the compounds, two-fold serially diluted in the range of 100–0.19 µM. Positive controls (microbial suspensions in regular media), negative controls (only compounds), and solvent controls (microbial suspensions incubated with DMSO dilutions) were included in the tests. The plate was incubated at 37 °C for 24 h, and subsequently, the optical density at 630 nm (OD630nm) was spectrophotometrically measured. Each experiment was carried out with three technical replicates (i.e., three wells per sample) and repeated at least two times for statistical power. […] IC50 values, corresponding to the concentration of the compound giving rise to an inhibition of growth of 50%, were obtained by interpolation on dose–response curves generated by plotting the percentages of growth inhibition, relative to the positive control (set to 100% of growth), as a function of the tested concentrations (on a logarithm scale). Statistical analysis was carried out using GraphPad Prism version 9.4.1 for Windows (GraphPad Software, San Diego, CA, USA, www.graphpad.com).
(Broth dilution looks for growth in wells or tubes with falling amounts of substance.)

A short description of series [2]: cell viability and proliferation assay (WST8/CCK-8). The conditions noted are these: African green monkey, Vero cells (ATCC CCL-81); Vero cells; mean [95% confidence interval]. In kind it is cell-based. The method, then: (§1) Vero cell line (ATCC CCL-81) was selected as the model system to assess the effect of the isatin hybrids on normal epithelial cells, and a previously established protocol was used with minor modifications. Briefly, cells were cultured in RPMI-1640 medium supplemented with 10% fetal bovine serum (FBS) (Carlo Erba Reagents, Milan, Italy), 100 U/mL penicillin, and 100 µg/mL streptomycin at 37 °C with 5% CO2. For experiments, cells were seeded into 96-well plates at 10^4 cells/well, and incubated at 37 °C for 24 h. Following washes with PBS, the cell monolayer was incubated with 100 µL of medium containing the 2-fold serial dilutions of the compounds. Both untreated cells and cells incubated with medium containing solvent dilutions were included in each experiment as controls. The cell viability was assessed by a WST8-based assay according to the manufacturer’s instructions (CCK-8, Cell Counting Kit-8, Dojindo Molecular Technologies, Rockville, MD, USA). After 48 h of incubation, culture medium was removed from each well, the monolayer was washed with PBS, and 100 µL of fresh medium containing 10 µL of CCK-8 solution were added. After 2 h at 37 °C, the OD450nm was read, and data were expressed as the percentage of the cell viability relative to the untreated controls. The CC50 was obtained from the corresponding dose–response curves generated, as previously reported for IC50 values.
A general note: Formazan colour is commonly taken as a measure of viable cells.

For series [3], the system named is Vero cell line (ATCC CCL-81). The description is as above. In kind it is cell-based. The note with it: 100 μM, viability relative to untreated controls, mean ± SD. As for the experimental part:
as §1

In series [4] the test system is S. aureus MRSA 4. Put plainly: dose-response against clinical isolate MRSA 4. In kind it is cell-based. The note with it: Staphylococcus aureus, mean [95% confidence interval]. As for the experimental part: The antimicrobial activity of the compounds was assessed by a well-established broth microdilution procedure in microtiter plates and in compliance with the Clinical and laboratory Standard Institute (CLSI) guidelines (Clinical and Laboratory Standards Institute, Wayne, PA, USA). In short, microbial inocula were prepared at 0.5 McFarland in PBS and, subsequently, bacterial suspensions were diluted 1:200 in Mueller–Hinton broth (Sigma-Aldrich, St. Louis, MO, USA), while fungal inoculum was diluted 1:20 in RPMI-1640 medium (Gibco®, ThermoFisher Scientific Inc., Waltham, MA, USA), containing 2% glucose and 0.3% levo-glutamine buffered to pH 7.0 with 0.165 M 3-(N-morpholino)propanesulfonic acid (MOPS). A total of 100 µL of these microbial suspensions were introduced in a 96-well microplate and incubated with 100 µL of the compounds, two-fold serially diluted in the range of 100–0.19 µM. Positive controls (microbial suspensions in regular media), negative controls (only compounds), and solvent controls (microbial suspensions incubated with DMSO dilutions) were included in the tests. The plate was incubated at 37 °C for 24 h, and subsequently, the optical density at 630 nm (OD630nm) was spectrophotometrically measured. Each experiment was carried out with three technical replicates (i.e., three wells per sample) and repeated at least two times for statistical power. […]

By CC50 is commonly meant the concentration giving 50% cytotoxicity. Usually IC50 stands for the point on the concentration scale where inhibition reaches its midpoint.

SMILES strings stand for the structures.

On to `O=C1Nc2cc(OC(F)(F)F)ccc2C1(c1c(Cl)nc2sccn12)c1c(Cl)nc2sccn12` [Compound 11, 3,3-bis(6-Chloroimidazo[2,1-b]thiazol-5-yl)-6-(trifluoromethoxy)indolin-2-one], for which the “Microbial growth, C. albicans” value in series [1] was “did not inhibit the growth”. Moreover, the activity at 100 µM in series [1] (Candida albicans, ATCC10231, read-out: Microbial growth, C. albicans) was determined as 108 ± 8.5%. The CC50 at 48 h in series [2] amounted to 63.3 µM. In series [3], the “Cell proliferation, Vero” value is given as “most toxic”. Besides, the viability at 100 µM in series [3] (Chlorocebus sabaeus, Vero, 48 h, read-out: Cell proliferation, Vero) came to 21.1 ± 3.3%. Further, half-maximal inhibition in series [4] (IC50) required 11.3 µM.
